# Laboratory results reported in patent EP0411751A1, “Renin inhibitory peptides” (Beecham Group p.l.c., priority 1989, dated 1991).
# Target: T1, human renin (Homo sapiens, UniProt P00797)
# T1 construct: from tissue; host or cells: human plasma from blood of healthy volunteers
# T1 sequence (P00797 67-406): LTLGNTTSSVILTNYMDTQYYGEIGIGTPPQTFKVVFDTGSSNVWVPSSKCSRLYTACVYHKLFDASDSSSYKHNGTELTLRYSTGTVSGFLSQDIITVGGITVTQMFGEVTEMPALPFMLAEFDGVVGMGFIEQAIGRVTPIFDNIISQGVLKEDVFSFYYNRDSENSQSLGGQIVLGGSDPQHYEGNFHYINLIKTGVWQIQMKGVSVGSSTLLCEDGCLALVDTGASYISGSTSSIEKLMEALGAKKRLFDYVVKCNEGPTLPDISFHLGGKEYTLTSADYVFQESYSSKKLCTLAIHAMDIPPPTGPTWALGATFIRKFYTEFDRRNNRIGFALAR
# Assay: In vitro human renin inhibition (renin activity in human plasma, angiotensin I radioimmunoassay)
# Format: biochemical
# Settings: angiotensin I difference between halves incubated at 37° and 4° for 2 h, linear regression of at least three concentrations, read-out: IC₅₀
# Protocol: In vitro human renin inhibition
# Renin inhibitory activity was estimated as the percentage change in renin activity in human plasma in the presence and absence of compound. The source of plasma was blood taken from healthy volunteers. Renin activity was defined by the difference in angiotensin I levels between two halves of a sample, one incubated at 37^o and the other at 4^o for 2 h. Angiotensin I levels were measured using a ¹²⁵I- angiotensin I radioimmunoassay kit (NEN/DuPont, Stevenage). Results were calculated as the mean of at least two, duplicate determinations and IC₅₀ values were calculated by linear regression analysis of at least three concentrations of compound.
row,Compound,IC50
1,"CC(C)CNC(=O)C[C@H](O)[C@H](CC1CCCCC1)NC(=O)[C@H](CC(C)C)NC(=O)[C@H](Cc1ccccc1)NC(=O)CC1CCOc2ccccc21 (stereo partly drawn) [Example E1, Chromanyl-4-acetyl-Phe-Leu-ACHPA isobutylamide .0.5H₂O]",47 nM
2,"Cc1ccc2c(c1)N(CC(=O)N[C@@H](Cc1ccccc1)C(=O)N[C@@H](CC(C)C)C(=O)N[C@@H](CC1CCCCC1)[C@@H](O)CC(=O)NCC(C)C)C(=O)CO2 [Example E2, 2,3-Dihydro-6-methyl-3-oxo-4H-1,4-benzoxazine-4-acetyl-Phe-Leu-ACHPA isobutylamide .H₂O]",220 nM
3,"CC(C)CNC(=O)C[C@H](O)[C@H](CC1CCCCC1)NC(=O)[C@H](CC(C)C)NC(=O)[C@H](Cc1ccccc1)NC(=O)CCN1C(=O)CS(=O)(=O)c2ccccc21 [Example E7, 2,3-Dihydro-1,1,3-trioxo-4H-1,4-benzothiazine-4-propanoyl-Phe-Leu-ACHPA isobutylamide .0.5H₂O]",13 nM
4,"CC(C)C[C@H](NC(=O)[C@H](Cc1ccccc1)NC(=O)CCN1C(=O)COc2ccc(CN)cc21)C(=O)N[C@@H](CC1CCCCC1)[C@@H](O)CC(=O)NCCCn1ccnc1 [Example E11, 6-(Aminomethyl)-2,3-dihydro-3-oxo-4H-1,4-benzoxazine-4-propanoyl-Phe-Leu-ACHPA 3-(1imidazolyl)propylamide .3CF₃CO₂H]",25 nM
5,"CC(C)C[C@H](NC(=O)[C@H](Cc1ccccc1)NC(=O)CCN1C(=O)COc2ccc(C(=O)O)cc21)C(=O)N[C@@H](CC1CCCCC1)[C@@H](O)CC(=O)NCCCn1ccnc1 [Example E15, 6-Carboxy-2,3-dihydro-3-oxo-4H-1,4-benzoxazine-4-propanoyl-Phe-Leu-ACHPA 3-(1-imidazolyl)propylamide]",42 nM
6,"CC(C)C[C@H](NC(=O)[C@H](Cc1ccccc1)NC(=O)CCN1C(=O)CCSc2ccccc21)C(=O)N[C@@H](CC1CCCCC1)[C@@H](O)CC(=O)NCCCn1ccnc1 [Example E18, 3,4-Dihydro-4-oxo-1,5-benzothiazepine-5(2H)-propanoyl-Phe-Leu-ACHPA 3-(1-imidazolyl)propylamide.0.5(CHCl₃)]",8 nM
7,"CC(C)C[C@H](NC(=O)[C@H](Cc1ccccc1)NC(=O)CCN1C(=O)CCS(=O)(=O)c2ccccc21)C(=O)N[C@@H](CC1CCCCC1)[C@@H](O)CC(=O)NCCCn1ccnc1 [Example E19, 3,4-Dihydro-1,1,4-trioxo-1,5-benzothiazepine-5(2H)-propanoyl-Phe-Leu-ACHPA 3-(1-imidazolyl)propylamide]",22 nM
